# Source: patent US20260284207A1, “COMPOUND FOR USE AS A PEPTIDE BINDER SPECIFICALLY BINDING TO THE UBIQUITIN LIGASE ADAPTER FBXO31” (ETH ZÜRICH, priority 2022, published 2026)
# fluorescein = N-terminal fluorescein label, coupled as FITC
# Columns and labels:
# K562 cells = test: Fluorescent reporter protein stability assay in nucleofected K562 cells; type: cell-based, human; settings: sfGFP carrying a primary C-terminal amide
# Description: HEK293T cells were cultured in DMEM containing Glutamax (Thermo Fisher Scientific) and K562 cells were cultured in RPMI 1640 containing Glutamax (Thermo Fisher Scientific) under standard conditions. Growth media were further supplemented with 10% (v/v) Fetal Bovine Serum (Thermo Fisher Scientific) and 100 U/ml Penicillin-Streptomycin (Thermo Fisher Scientific). Stably transduced cells were selected using 2 μg/ml Puromycin (Thermo Fisher Scientific), 500 μg/ml Geneticin (Thermo Fisher Scientific) or 10 μg/ml Blasticidin (Thermo Fisher Scientific) starting two days after transduction. Induction of doxycycline-dependent vectors was performed using 500 ng/ml doxycycline (Merck) every 48 hours. […]
# For measuring stability of recombinant or semi-synthetic proteins, 1.5-2.0×10^5 cells were nucleofected with 200 pmol of protein in 20 μl cuvettes using a 4D nucleofector device (Lonza) to according the manufacturer's recommendations. Following protein delivery, cells were left to recover at 37° C. for 30-45 minutes before measuring initial mean fluorescence intensity values (to) on a Attune N×T Flow Cytometer (Thermo Fisher Scientific). […] Baseline-fluorescence values of mock nucleofected cells receiving no protein were measured and subtracted for each time point and baseline-corrected fluorescence values were normalized to t0. […]
# FBXO31 = target: T1, FBXO31 (Homo sapiens, UniProt Q5XUX0); test: Competitive fluorescence polarization anisotropy (displacement of fluorescent peptide probes); type: binding; settings: probes FL-lib-SVV-NH2, FL-CycD1-NH2, FL-Pep2-NH2; 2 nM probe, 200 nM FBXO31
# T1 construct: histidine tag (Ulp1-cleavable) (cleaved yes); made in house; host or cells: bacteria (pET28b expression vector)
# T1 sequence (Q5XUX0 whole entry): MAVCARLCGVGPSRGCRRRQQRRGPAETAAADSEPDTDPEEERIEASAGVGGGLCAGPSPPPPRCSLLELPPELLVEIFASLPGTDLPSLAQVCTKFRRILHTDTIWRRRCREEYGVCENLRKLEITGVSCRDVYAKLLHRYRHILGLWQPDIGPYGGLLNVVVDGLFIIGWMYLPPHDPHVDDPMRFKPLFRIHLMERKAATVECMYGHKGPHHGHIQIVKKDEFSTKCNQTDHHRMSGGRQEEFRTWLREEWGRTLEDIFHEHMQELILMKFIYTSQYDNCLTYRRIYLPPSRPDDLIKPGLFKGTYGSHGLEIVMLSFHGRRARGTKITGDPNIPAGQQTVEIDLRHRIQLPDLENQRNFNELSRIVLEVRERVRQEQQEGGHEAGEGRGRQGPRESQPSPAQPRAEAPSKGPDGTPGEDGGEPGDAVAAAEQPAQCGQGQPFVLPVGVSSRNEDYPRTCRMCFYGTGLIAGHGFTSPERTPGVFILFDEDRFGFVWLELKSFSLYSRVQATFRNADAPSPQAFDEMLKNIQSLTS
# T1 sequence (P63208 whole entry partner): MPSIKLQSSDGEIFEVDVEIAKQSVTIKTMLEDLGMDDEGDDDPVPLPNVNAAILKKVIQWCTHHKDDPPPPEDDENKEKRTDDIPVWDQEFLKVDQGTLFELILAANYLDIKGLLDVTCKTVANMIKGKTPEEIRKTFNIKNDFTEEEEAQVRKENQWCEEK
# Description: To test whether a lower molecular weight probe could be derived based on these rules, the C-terminally amidated tripeptide Ser-Val-Val-NH2 (302.37 g/mol) was tested.
# Increasing concentrations of recombinant FBXO31/SKP1 complexes were mixed with 20 nM fluorescein-labeled peptides in FPA-buffer (150 mM NaCl, 25 mM HEPES, pH 7.5) and incubated for 30 minutes at room temperature. Fluorescence polarization was measured on a Victor Nivo Plate Reader (Perkin Elmer). Following subtraction of baseline signal, polarization levels were normalized to the highest signal of each pair of amidated and non-amidated peptides. Binding curves were fitted by least squares regression and half-maximal binding concentrations were extracted using Prism 9 (Graphpad) assuming one-site binding and no contribution from unspecific interaction. Competition binding assays were performed in the same way using a fixed ratio of 2 nM fluorescent probe and 200 nM FBXO31 and 0.67 nM to 100 μM competing ligand.
# [1] = target: T2, recombinant FBXO31/SKP1 complexes (Homo sapiens, UniProt Q5XUX0); test: Fluorescence polarization (FP) binding of fluorescein-labeled peptides to recombinant FBXO31/SKP1; settings: wild type FBXO31/SKP1
# T2 construct: histidine tag (Ulp1-cleavable) (cleaved yes); made in house; host or cells: bacteria (pET28b expression vector)
# T2 sequence (Q5XUX0 whole entry): as the sequence (Q5XUX0 whole entry) above
# T2 sequence (P63208 whole entry partner): as the sequence (P63208 whole entry partner) above
# Description: It was then tested whether SCF/FBXO31 directly binds and ubiquitylates amidated clients, or whether it plays an indirect role in CTAP clearance. To this end, recombinant FBXO31 in complex with the binding partner SKP1 was purified and its affinity for various peptides was measured by fluorescence polarization (FP).
# In this regard, it was first tested whether FBXO31 specifically binds C-terminal amides rather than side chain amides in asparagine or glutamine. […] Hydrophobic residues were most strongly bound, with X—F—CONH2 as the best substrate (KD≈6 nM), followed by other and then uncharged and charged hydrophilic side chains.
# Codon-optimized CDNAs of SKP1 and FBXO31 were generated by gene synthesis (Integrated DNA Technologies) and cloned into the bacterial expression vector pET28b. Expression was performed at 18° C. overnight in presence of 0.5 mM IPTG. Following bacterial cell lysis by sonication in buffer NBA (200 mM NaCl, 50 mM HEPES, 25 mM imidazole, 5 mM DTT freshly added, pH 8.0), recombinant protein was enriched on a HisTrap FF column (Cytiva) by elution with 250 mM imidazole. […]
# Increasing concentrations of recombinant FBXO31/SKP1 complexes were mixed with 20 nM fluorescein-labeled peptides in FPA-buffer (150 mM NaCl, 25 mM HEPES, pH 7.5) and incubated for 30 minutes at room temperature. Fluorescence polarization was measured on a Victor Nivo Plate Reader (Perkin Elmer). […]
compound,measurement,setting,value
NS(=O)(=O)OC[C@H]1C[C@@H](Nc2ccnc3cc(-c4cccc(SC(F)(F)F)c4)nn23)[C@H](O)[C@@H]1O [TAK243],effect of inhibitor on destabilization of C-terminally amidated sfGFP,K562 cells,fully blunted
CC[C@H](C)[C@H](NC(=O)[C@H]([C@@H](C)CC)N(C)C(C)=O)C(=O)N[C@H](C(=O)N[C@@H](CC(C)C)C(=O)[C@@]1(C)CO1)[C@@H](C)O [epoxomicin],effect of inhibitor on destabilization of C-terminally amidated sfGFP,K562 cells,fully blunted
Ser-Val-Val-NH2,displacement of fluorescent peptide probes from FBXO31,FBXO31,efficiently displace
[Fluorescein]-KKYRYDVPDYSVV-NH2 (fluorescein-KKYRYDVPDYSVV-NH2) [FL-lib-SVV-NH2],binding/affinity for FBXO31 (in words),[1],high affinity
